In patent publication US20240043427A1 (Gilead Sciences, Inc., priority 2020, published 2024):

molecular target: CD73 (Homo sapiens (Human), UniProt P21589); assay type: biochemical; conditions: 1 mM NaH2PO4 in enzyme buffer, CD73 0.3 nM, AMP 15 uM
Sequence (P21589 27-574): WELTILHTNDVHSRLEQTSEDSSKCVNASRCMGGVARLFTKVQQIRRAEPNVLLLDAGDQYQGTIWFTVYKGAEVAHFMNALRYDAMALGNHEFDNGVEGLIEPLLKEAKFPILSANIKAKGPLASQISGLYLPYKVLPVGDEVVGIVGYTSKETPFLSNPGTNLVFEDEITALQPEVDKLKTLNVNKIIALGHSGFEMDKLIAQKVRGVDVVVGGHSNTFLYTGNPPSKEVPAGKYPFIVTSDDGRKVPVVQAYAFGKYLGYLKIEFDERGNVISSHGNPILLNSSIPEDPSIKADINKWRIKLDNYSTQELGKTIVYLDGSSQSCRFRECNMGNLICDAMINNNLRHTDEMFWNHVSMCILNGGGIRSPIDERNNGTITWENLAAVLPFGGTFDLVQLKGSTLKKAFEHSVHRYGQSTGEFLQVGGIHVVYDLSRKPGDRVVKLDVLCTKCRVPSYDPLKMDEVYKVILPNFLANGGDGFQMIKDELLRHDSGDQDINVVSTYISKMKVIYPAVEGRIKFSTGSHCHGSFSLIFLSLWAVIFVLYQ

SMILES	IC50
O=c1[nH]cc(-c2cc([C@H]3C[C@@H]3c3ccc4c(F)nn(CC(F)(F)F)c4c3)c3nccn3n2)c(=O)[nH]1 (racemic) [Example 117, 5-(8-((1S,2S)-2-(3-fluoro-1-(2,2,2-trifluoroethyl)-1H-indazol-6-yl)cyclopropyl)imidazo[1,2-b]pyridazin-6-yl)pyrimidine-2,4(1H,3H)-dione]	0.89 nM
O=c1[nH]cc(-c2cc([C@H]3C[C@@H]3c3ccc4cnn(CC5CC5(F)F)c4c3)c3nccn3n2)c(=O)[nH]1 (mixture of isomers) [Example 118, 5-(8-((1S,2S)-2-(1-((2,2-difluorocyclopropyl)methyl)-1H-indazol-6-yl)cyclopropyl)imidazo[1,2-b]pyridazin-6-yl)pyrimidine-2,4(1H,3H)-dione]	0.79 nM
O=c1[nH]cc(-c2cc([C@H]3C[C@@H]3c3cc4c(ccn4CC(F)(F)F)cn3)c3nccn3n2)c(=O)[nH]1 (racemic) [Example 127, 5-(8-((1S,2S)-2-(1-(2,2,2-trifluoroethyl)-1H-pyrrolo[3,2-c]pyridin-6-yl)cyclopropyl)imidazo[1,2-b]pyridazin-6-yl)pyrimidine-2,4(1H,3H)-dione]	1.13 nM
O=c1[nH]cc(-c2cc([C@H]3C[C@@H]3c3ccc4c(C5CC5)nn(CC(F)(F)F)c4c3)c3nccn3n2)c(=O)[nH]1 (racemic) [Example 128, 5-(8-((1S,2S)-2-(3-cyclopropyl-1-(2,2,2-trifluoroethyl)-1H-indazol-6-yl)cyclopropyl)imidazo[1,2-b]pyridazin-6-yl)pyrimidine-2,4(1H,3H)-dione]	1.84 nM
O=c1[nH]cc(-c2cc([C@H]3C[C@@H]3c3ccc4cnn(CC5CC5)c4c3)c3nccn3n2)c(=O)[nH]1 (racemic) [Example 130, 5-(8-((1S,2S)-2-(1-(cyclopropylmethyl)-1H-indazol-6-yl)cyclopropyl)imidazo[1,2-b]pyridazin-6-yl)pyrimidine-2,4(1H,3H)-dione]	1.01 nM
O=c1[nH]cc(-c2cc([C@H]3C[C@@H]3c3ccc4ncsc4c3)c3nc(C4CC4)cn3n2)c(=O)[nH]1 (racemic) [Example 143, 5-(8-((1S,2S)-2-(benzo[d]thiazol-6-yl)cyclopropyl)-2-cyclopropylimidazo[1,2-b]pyridazin-6-yl)pyrimidine-2,4(1H,3H)-dione]	5.69 nM
N#Cc1ccc([C@H]2C[C@@H]2c2cc(-c3c[nH]c(=O)[nH]c3=O)nn3c(F)cnc23)nc1 (racemic) [Example 151, 6-((1S,2S)-2-(6-(2,4-dioxo-1,2,3,4-tetrahydropyrimidin-5-yl)-3-fluoroimidazo[1,2-b]pyridazin-8-yl)cyclopropyl)nicotinonitrile]	1.36 nM
O=c1[nH]cc(-c2cc([C@H]3C[C@@H]3c3ccc4cccnc4c3)c3nccn3n2)c(=O)[nH]1 (racemic) [Example 154, 5-(8-((1S,2S)-2-(quinolin-7-yl)cyclopropyl)imidazo[1,2-b]pyridazin-6-yl)pyrimidine-2,4(1H,3H)-dione]	1.56 nM
N#Cc1ccc([C@H]2C[C@@H]2c2cc(-c3c[nH]c(=O)[nH]c3=O)nn3ccnc23)nc1 (racemic) [Example 155, 6-((1S,2S)-2-(6-(2,4-dioxo-1,2,3,4-tetrahydropyrimidin-5-yl)imidazo[1,2-b]pyridazin-8-yl)cyclopropyl)nicotinonitrile]	2.04 nM
O=c1[nH]cc(-c2cc([C@H]3C[C@@H]3c3ccc4cnccc4c3)c3nccn3n2)c(=O)[nH]1 (racemic) [Example 156, 5-(8-((1S,2S)-2-(isoquinolin-6-yl)cyclopropyl)imidazo[1,2-b]pyridazin-6-yl)pyrimidine-2,4(1H,3H)-dione]	0.95 nM
O=c1[nH]cc(-c2cc([C@H]3C[C@@H]3c3ccc4ncccc4c3)c3nccn3n2)c(=O)[nH]1 (racemic) [Example 157, 5-(8-((1S,2S)-2-(quinolin-6-yl)cyclopropyl)imidazo[1,2-b]pyridazin-6-yl)pyrimidine-2,4(1H,3H)-dione]	1.06 nM
O=c1[nH]cc(-c2cc([C@H]3C[C@@H]3c3ccnc(C(F)(F)F)c3)c3nccn3n2)c(=O)[nH]1 (racemic) [Example 160, 5-(8-((1S,2S)-2-(2-(trifluoromethyl)pyridin-4-yl)cyclopropyl)imidazo[1,2-b]pyridazin-6-yl)pyrimidine-2,4(1H,3H)-dione]	15.4 nM
O=c1[nH]cc(-c2cc([C@H]3C[C@@H]3c3ccncc3F)c3nccn3n2)c(=O)[nH]1 (racemic) [Example 161, 5-(8-((1S,2S)-2-(3-fluoropyridin-4-yl)cyclopropyl)imidazo[1,2-b]pyridazin-6-yl)pyrimidine-2,4(1H,3H)-dione]	4.48 nM
O=c1[nH]cc(-c2cc([C@H]3C[C@@H]3c3cnc4ccccc4c3)c3nccn3n2)c(=O)[nH]1 (racemic) [Example 163, 5-(8-((1S,2S)-2-(quinolin-3-yl)cyclopropyl)imidazo[1,2-b]pyridazin-6-yl)pyrimidine-2,4(1H,3H)-dione]	2.13 nM
O=c1[nH]cc(-c2cc([C@H]3C[C@@H]3c3cncc(F)c3)c3nccn3n2)c(=O)[nH]1 (racemic) [Example 164, 5-(8-((1S,2S)-2-(5-fluoropyridin-3-yl)cyclopropyl)imidazo[1,2-b]pyridazin-6-yl)pyrimidine-2,4(1H,3H)-dione]	3.58 nM
O=c1[nH]cc(-c2cc([C@H]3C[C@@H]3c3ccc(C(F)(F)F)cc3F)c3nccn3n2)c(=O)[nH]1 (racemic) [Example 165, 5-(8-((1S,2S)-2-(2-fluoro-4-(trifluoromethyl)phenyl)cyclopropyl)imidazo[1,2-b]pyridazin-6-yl)pyrimidine-2,4(1H,3H)-dione]	5.06 nM
O=c1[nH]cc(-c2cc([C@H]3C[C@@H]3c3cccc4ccncc34)c3nccn3n2)c(=O)[nH]1 (racemic) [Example 166, 5-(8-((1S,2S)-2-(isoquinolin-8-yl)cyclopropyl)imidazo[1,2-b]pyridazin-6-yl)pyrimidine-2,4(1H,3H)-dione]	43 nM
O=c1[nH]cc(-c2cc([C@H]3C[C@@H]3c3ccnc4ccccc34)c3nccn3n2)c(=O)[nH]1 (racemic) [Example 167, 5-(8-((1S,2S)-2-(quinolin-4-yl)cyclopropyl)imidazo[1,2-b]pyridazin-6-yl)pyrimidine-2,4(1H,3H)-dione]	33 nM
O=c1[nH]cc(-c2cc([C@H]3C[C@@H]3c3cccc4cnccc34)c3nccn3n2)c(=O)[nH]1 (racemic) [Example 168, 5-(8-((1S,2S)-2-(isoquinolin-5-yl)cyclopropyl)imidazo[1,2-b]pyridazin-6-yl)pyrimidine-2,4(1H,3H)-dione]	72.5 nM
CCOC(=O)c1cn2nc(-c3c[nH]c(=O)[nH]c3=O)cc([C@H]3C[C@@H]3c3ccc(F)cc3)c2n1 (racemic) [Example 172, ethyl 6-(2,4-dioxo-1,2,3,4-tetrahydropyrimidin-5-yl)-8-((1S,2S)-2-(4-fluorophenyl)cyclopropyl)imidazo[1,2-b]pyridazine-2-carboxylate]	13.9 nM
O=c1[nH]cc(-c2cc([C@H]3C[C@@H]3c3ccccn3)c3ncc(F)n3n2)c(=O)[nH]1 (racemic) [Example 178, 5-(3-fluoro-8-((1S,2S)-2-(pyridin-2-yl)cyclopropyl)imidazo[1,2-b]pyridazin-6-yl)pyrimidine-2,4(1H,3H)-dione]	2.65 nM
O=c1[nH]cc(-c2cc([C@H]3C[C@@H]3c3cncnc3)c3ncc(F)n3n2)c(=O)[nH]1 (racemic) [Example 179, 5-(3-fluoro-8-((1S,2S)-2-(pyrimidin-5-yl)cyclopropyl)imidazo[1,2-b]pyridazin-6-yl)pyrimidine-2,4(1H,3H)-dione]	16.7 nM
O=c1[nH]cc(-c2cc([C@H]3C[C@@H]3c3cccnc3)c3ncc(F)n3n2)c(=O)[nH]1 (racemic) [Example 180, 5-(3-fluoro-8-((1S,2S)-2-(pyridin-3-yl)cyclopropyl)imidazo[1,2-b]pyridazin-6-yl)pyrimidine-2,4(1H,3H)-dione]	2.2 nM
O=c1[nH]cc(-c2cc([C@H]3C[C@@H]3c3ccncc3)c3ncc(F)n3n2)c(=O)[nH]1 (racemic) [Example 181, 5-(3-fluoro-8-((1S,2S)-2-(pyridin-4-yl)cyclopropyl)imidazo[1,2-b]pyridazin-6-yl)pyrimidine-2,4(1H,3H)-dione]	2.42 nM
O=c1[nH]cc(-c2cc([C@H]3C[C@@H]3c3ccc(Cl)cc3)c3ncc(F)n3n2)c(=O)[nH]1 (racemic) [Example 182, 5-(8-((1S,2S)-2-(4-chlorophenyl)cyclopropyl)-3-fluoroimidazo[1,2-b]pyridazin-6-yl)pyrimidine-2,4(1H,3H)-dione]	1.24 nM
O=c1[nH]cc(-c2cc([C@H]3C[C@@H]3c3ccc(C(F)(F)F)cc3)c3ncc(F)n3n2)c(=O)[nH]1 (racemic) [Example 183, 5-(3-fluoro-8-((1S,2S)-2-(4-(trifluoromethyl)phenyl)cyclopropyl)imidazo[1,2-b]pyridazin-6-yl)pyrimidine-2,4(1H,3H)-dione]	2.52 nM
Cn1cc([C@H]2C[C@@H]2c2cc(-c3c[nH]c(=O)[nH]c3=O)nn3ccnc23)ccc1=O (racemic) [Example 184, 5-(8-((1S,2S)-2-(1-methyl-6-oxo-1,6-dihydropyridin-3-yl)cyclopropyl)imidazo[1,2-b]pyridazin-6-yl)pyrimidine-2,4(1H,3H)-dione]	2.86 nM
CC1(C)C(=O)N(CC(F)(F)F)c2cc([C@H]3C[C@@H]3c3cc(-c4c[nH]c(=O)[nH]c4=O)nn4c(Cl)cnc34)ccc21 (racemic) [Example 212, 5-[3-chloro-8-[(1S,2S)-2-[3,3-dimethyl-2-oxo-1-(2,2,2-trifluoroethyl)indolin-6-yl]cyclopropyl]imidazo[1,2-b]pyridazin-6-yl]-1H-pyrimidine-2,4-dione]	1.24 nM
O=c1[nH]cc(-c2cc([C@H]3C[C@@H]3c3ccc4c(F)nn(CC(F)(F)F)c4c3)c3ncc(Cl)n3n2)c(=O)[nH]1 (racemic) [Example 213, 5-[3-chloro-8-[(1S,2S)-2-[3-fluoro-1-(2,2,2-trifluoroethyl)indazol-6-yl]cyclopropyl]imidazo[1,2-b]pyridazin-6-yl]-1H-pyrimidine-2,4-dione]	0.92 nM
